The values that follow are results of earlier work, collected in publication PMC11881343, “Safety of ilunocitinib tablets (Zenrelia™) after once daily oral administration in dogs” (BMC Veterinary Research, 2025).

Data set [1] relates to human patients with rheumatoid arthritis. Also on record: method as in PMID 31362993. Conditions: human medicine; cited from earlier work.
For the next data set, the system named is JAK3. Set-up: method as in PMID 32413585. Conditions: cited from earlier work.
Data set [2] relates to peripheral blood leukocytes. To be noted: rheumatoid arthritis patients in phase III clinical trials; cited from earlier work.
In a further data set the test system is dogs. To be noted: cited from earlier work.

Turning to `CC[C@@H]1CN(C(=O)NCC(F)(F)F)C[C@@H]1c1cnc2cnc3[nH]ccc3n12` [upadacitinib], the effect on hemoglobin result in data set [1] is “limited impact on hemoglobin”.

On to `CCS(=O)(=O)N1CC(CC#N)(n2cc(-c3ncnc4[nH]ccc34)cn2)C1` [baricitinib], for which the “potency against JAK3” value with JAK3 was “significantly lower potency against JAK3”. Moreover, in data set [1], the effect on hemoglobin entry is “initial decrease in hemoglobin within the normal range followed by a slight increase”. In data set [2], the “changes in lymphocytes subsets populations” value was “minimal and reversible changes”.

`CNS(=O)(=O)C[C@H]1CC[C@H](N(C)c2ncnc3[nH]ccc23)CC1` [oclacitinib]: the “Weight gain in dogs” value in the data set on dogs (dogs) was “Weight gain has been reported”. The Papillomas in dogs result in the data set on dogs (resorbed spontaneously) is listed as “Papillomas were also observed”.
